± gives the standard deviation of the averaged measurements.
Columns and labels:
Conditions in all cases: 72 h
Vero E6 [1] = assay: cell viability relative to DMSO; higher = less toxic
Caco-2 [2] = assay: as above
HepG2 [3] = assay: as above
U2OS [4] = assay: as above
Calu-3 [5] = assay: as above
Vero E6 [6] = assay: drug sensitivity score (DSS) for viability; higher = more toxic; extreme values may be limits of the assay
Caco-2 [7] = assay: as above
HepG2 [8] = assay: as above
U2OS [9] = assay: as above
Calu-3 [10] = assay: as above
Vero E6 [11] = assay: relative viability EC50 (midpoint between 100% and the lowest measured viability); higher = less toxic
Caco-2 [12] = assay: as above
HepG2 [13] = assay: as above
U2OS [14] = assay: as above
Calu-3 [15] = assay: as above

Row | Structure (SMILES) | cell viability (Vero E6 [1]; 1 nM) | cell viability (Vero E6 [1]; 10 nM) | cell viability (Vero E6 [1]; 100 nM) | cell viability (Vero E6 [1]; 1000 nM) | cell viability (Vero E6 [1]; 10000 nM) | cell viability (Caco-2 [2]; 1 nM) | cell viability (Caco-2 [2]; 10 nM) | cell viability (Caco-2 [2]; 100 nM) | cell viability (Caco-2 [2]; 1000 nM) | cell viability (Caco-2 [2]; 10000 nM) | cell viability (HepG2 [3]; 1 nM) | cell viability (HepG2 [3]; 10 nM) | cell viability (HepG2 [3]; 100 nM) | cell viability (HepG2 [3]; 1000 nM) | cell viability (HepG2 [3]; 10000 nM) | cell viability (U2OS [4]; 1 nM) | cell viability (U2OS [4]; 10 nM) | cell viability (U2OS [4]; 100 nM) | cell viability (U2OS [4]; 1000 nM) | cell viability (U2OS [4]; 10000 nM) | cell viability (Calu-3 [5]; 1 nM) | cell viability (Calu-3 [5]; 10 nM) | cell viability (Calu-3 [5]; 100 nM) | cell viability (Calu-3 [5]; 1000 nM) | cell viability (Calu-3 [5]; 10000 nM) | drug sensitivity score (Vero E6 [6]) | drug sensitivity score (Caco-2 [7]) | drug sensitivity score (HepG2 [8]) | drug sensitivity score (U2OS [9]) | drug sensitivity score (Calu-3 [10]) | relative viability EC50 (Vero E6 [11]) | relative viability EC50 (Caco-2 [12]) | relative viability EC50 (HepG2 [13]) | relative viability EC50 (U2OS [14]) | relative viability EC50 (Calu-3 [15])
1 | N[C@@H](Cc1cc(CP(=O)(O)O)cc(-c2ccccc2Cl)c1)C(=O)O [SDZ-220-581] | 95.8% | 102% | 92.7% | 95.9% | 107% | 102% | 91.5% | 91% | 101% | 111% | 96% | 99.6% | 92.6% | 101% | 104% | 99.8% | 99.3% | 96.8% | 106% | 105% | 107% | 92.8% | 101% | 98.6% | 114% | 0 | 0 | 0 | 0 | 0 | > 10 µM | > 10 µM | > 10 µM | > 10 µM | > 10 µM
2 | CN(C)c1cccc(Oc2cnc(Nc3cccc(O)c3)nc2)c1 [SEN-1269] | 98% | 94.4% | 95.9% | 89.2% | 93.4% | 96.5% | 102% | 102% | 96.3% | 82.3% | 102% | 104% | 93.8% | 93% | 99.9% | 101% | 102% | 95.5% | 99.5% | 94.8% | 94.5% | 99.7% | 100% | 95.4% | 102% | 0 | 0.9 | 0 | 0 | 0 | > 10 µM | > 10 µM | > 10 µM | > 10 µM | > 10 µM
3 | FC(F)(F)c1cccc(-c2noc(-c3cc(-c4ccccc4)c(C(F)(F)F)s3)n2)c1 [SEW-2871] | 101% | 98% | 97.4% | 90.7% | 110% | 103% | 104% | 102% | 99.8% | 108% | 102% | 103% | 93.9% | 100% | 99% | 93.7% | 99.1% | 96% | 102% | 102% | 93.2% | 91.1% | 99.9% | 93.3% | 98.5% | 0 | 0 | 0 | 0 | 0 | > 10 µM | > 10 µM | > 10 µM | > 10 µM | > 10 µM
4 | Cn1cc(-c2ccc3nnc(Sc4ccc5ncccc5c4)n3n2)cn1 [SGX523] | 94.8% | 101% | 94.4% | 98% | 107% | 92.5% | 98.6% | 103% | 107% | 100% | 96.2% | 95.2% | 92.5% | 97.2% | 103% | 99% | 98.6% | 101% | 93.4% | 103% | 89% | 97.2% | 102% | 96.5% | 100% | 0 | 0 | 0 | 0 | 0 | > 10 µM | > 10 µM | > 10 µM | > 10 µM | > 10 µM
5 | CCCNC(=O)N1N=C(c2ccc(N)cc2)c2cc3c(cc2C1C)OCO3 (stereo not given) [SYM-2206] | 98.5% | 92.5% | 97.9% | 88.9% | 98.6% | 96.6% | 102% | 95.5% | 94.2% | 100% | 91.9% | 94.8% | 95.2% | 93% | 93.5% | 95.1% | 101% | 97.4% | 103% | 101% | 86.9% | 101% | 109% | 111% | 119% | 0 | 0 | 0 | 0 | 0 | > 10 µM | > 10 µM | > 10 µM | > 10 µM | > 10 µM
6 | CN[C@@H]1[C@@H](O)[C@@H](O[C@@H]2[C@@H](O)[C@H](O[C@H]3OC(CN)=CC[C@H]3N)[C@@H](N)C[C@H]2N)OC[C@]1(C)O [Sisomicin (sulfate)] | 107 ± 8.3% | 107 ± 1.6% | 105 ± 4.5% | 98.5 ± 1.6% | 104 ± 2.9% | 100 ± 6.2% | 100 ± 4.2% | 103 ± 2.8% | 100 ± 0.78% | 94.15 ± 0.49% | 108 ± 8.4% | 101 ± 4.7% | 107 ± 7.3% | 96.8 ± 1.3% | 98.1 ± 4.1% | 101 ± 0.64% | 102 ± 0.49% | 99.7 ± 0.99% | 105 ± 3.1% | 99.4 ± 0.71% | 105 ± 7.6% | 101.8 ± 0.35% | 97.1 ± 0.28% | 101 ± 4.5% | 105 ± 5.2% | 0 | 0 | 0 | 0 | 0 | > 10 µM | > 10 µM | > 10 µM | > 10 µM | > 10 µM
7 | CN(C)C/C=C/C(=O)Nc1cccc(C(=O)Nc2cccc(Nc3ncc(Cl)c(-c4c[nH]c5ccccc45)n3)c2)c1 [THZ2] | 104% | 103% | 103% | 95% | 6.5% | 97.8% | 99.9% | 98.4% | 80.9% | 25.6% | 114% | 89.4% | 44.7% | 3.5% | 2.7% | 97.8% | 102% | 96.6% | 10.2% | 8.3% | 103% | 104% | 83.1% | 33.5% | 42.9% | 5.9 | 7.1 | 24.2 | 16.8 | 14.9 | 2.75 µM | 1.53 µM | 0.0771 µM | 0.303 µM | 0.154 µM
8 | CC(C)(O)c1ccn2c(-c3ccc(F)c(-c4ccc(F)cc4C#N)c3)cnc2c1F [TP-003] | 97.6% | 99.1% | 92.3% | 103% | 103% | 98.7% | 96% | 93.6% | 103% | 95.6% | 98.3% | 96.4% | 97.9% | 103% | 102% | 96.7% | 94.1% | 104% | 96.5% | 99.4% | 106% | 91.9% | 102% | 114% | 92.7% | 0 | 0 | 0 | 0 | 0 | > 10 µM | > 10 µM | > 10 µM | > 10 µM | > 10 µM
9 | CN1CCN(Cc2ccc(Nc3ncc(Cl)c(Nc4ccccc4S(=O)(=O)N(C)C)n3)cc2)CC1 [TP-0903] | 112% | 105% | 103% | 75.8% | 7.4% | 109% | 96.3% | 102% | 85.9% | 33.4% | 107% | 109% | 99.8% | 50.4% | 7% | 95% | 98.2% | 95.1% | 89.1% | 21% | 92.3% | 92% | 89% | 110% | 80.2% | 8.8 | 5.9 | 11.2 | 6.2 | 0.3 | 1.51 µM | 1.69 µM | 0.948 µM | 2.06 µM | > 10 µM
10 | Cc1ccc(-c2ccc(F)cc2COc2ccc(CCC(=O)O)cc2)cc1 [TUG-891] | 101% | 102% | 100% | 97.9% | 99% | 93.8% | 91.7% | 87.9% | 98.5% | 92.4% | 109% | 96.7% | 100% | 117% | 110% | 97.8% | 101% | 94.2% | 93.6% | 99.2% | 93.6% | 97.7% | 105% | 96.6% | 105% | 0 | 0 | 0 | 0 | 0 | > 10 µM | > 10 µM | > 10 µM | > 10 µM | > 10 µM
11 | C[C@]12C=CC(=O)C=C1CC[C@@H]1[C@@H]2CC[C@]2(C)OC(=O)CC[C@@H]12 [Testolactone] | 98.5% | 91.3% | 94.9% | 88.1% | 96.8% | 94% | 97.1% | 87.1% | 91.1% | 93.8% | 66.7% | 103% | 93.1% | 94.1% | 111% | 95.8% | 98.2% | 95.4% | 102% | 91.8% | 98.5% | 97.3% | 101% | 99.5% | 105% | 0 | 0 | 0 | 0 | 0 | > 10 µM | > 10 µM | > 10 µM | > 10 µM | > 10 µM
12 | CCCCCCCCCCC(=O)O[C@H]1CC[C@H]2[C@@H]3CCC4=CC(=O)CC[C@]4(C)[C@H]3CC[C@]12C [Testosterone (undecanoate)] | 98.5% | 97.2% | 99.2% | 95.5% | 94.9% | 87.3% | 92.9% | 104% | 96.7% | 91.5% | 95.6% | 106% | 92.4% | 99.4% | 96.9% | 99.8% | 94.4% | 102% | 99.4% | 97.7% | 103% | 94.7% | 96.5% | 94.4% | 100% | 0 | 0 | 0 | 0 | 0 | > 10 µM | > 10 µM | > 10 µM | > 10 µM | > 10 µM
13 | O=C(c1cccc(Br)c1)N1CCC(N2CCCC2)CC1 [UNC926] | 90.9% | 101% | 91.5% | 96.4% | 107% | 99.8% | 98.4% | 102% | 100% | 92.8% | 100% | 104% | 90.4% | 104% | 108% | 102% | 97.2% | 99.5% | 102% | 101% | 93.7% | 90.2% | 113% | 92.6% | 96.4% | 0 | 0 | 0 | 0 | 0 | > 10 µM | > 10 µM | > 10 µM | > 10 µM | > 10 µM
14 | O=C(c1ccc(C(=O)N2CCC(N3CCCC3)CC2)c(Nc2ccccc2)c1)N1CCC(N2CCCC2)CC1 [UNC1215] | 94% | 95.9% | 101% | 99.6% | 99.9% | 108% | 97.7% | 100% | 110% | 94.1% | 98.6% | 99.2% | 96.7% | 98% | 103% | 104% | 102% | 100% | 97.9% | 105% | 105% | 111% | 106% | 93.4% | 101% | 0 | 0 | 0 | 0 | 0 | > 10 µM | > 10 µM | > 10 µM | > 10 µM | > 10 µM

— the supplement of paper PMC13380429
